Measurements reported in patent publication US20060173162A1, “Bactericidak anti-apoptotic, pro-inflammatory and anti-inflammatory peptides of heparin-binding protein (hbp)” (priority 2002, published 2006).

What was measured:
Assay type in all cases: cell-based
[1] = tested on: monocytes in WB; test: IL-6 secretion in citrated human whole blood (screening for inflammatory and anti-inflammatory potential); conditions: for effect on LPS induced IL-6 secretion: 100 ng/ml LPS, FIG. 2; for effect on PCW induced IL-6 secretion: PCW 50 μg/ml from Staphylococcus aureus, FIG. 4; for IL-6 secretion in the absence of bacterial components: no bacterial component, peptide 0.09, 0.18, 0.36 and 0.71 mg/ml blood, FIG. 1; for LPS induced IL-6 production, variant compared to the unsubstituted peptide: in the presence of LPS, FIG. 7; for PGN induced IL-6 production, variant compared to the unsubstituted peptide: FIG. 8
Excerpt: Human whole blood (WB) contains besides red cells, platelets and plasma the white blood cells including the neutrophils and monocytes. Neutrophils and monocytes have receptors for bacterial products such as LPS, PGN and LTA. The bacterial products react directly or via specific binding proteins to receptors on the monocytes thereby stimulating them to secrete and release inflammatory cytokines comprising, but not limited to IL-1, IL-6, and TNF-α.
In the example to be described LPS from the E. coli is used to stimulate the monocytes in WB (anti-coagulated by use of citrate) and the activity is measured by subsequently quantifying IL-6 in plasma separated from WB. The activity of HBP, HBP derived peptides and analogues hereof are evaluated by their ability to: • 1. increase IL-6 secretion in absence of bacterial products • 2. increase IL-6 secretion in presence of bacterial products • 3. decrease IL-6 secretion in presence of bacterial products • 4. inhibit amplification of cytokine secretion induced by intact HBP
All operations must be carried out in LAF cabinet by observance of stringent aseptic techniques. All test tubes, pipette tips etc. must be pyrogen-free. Buffers must be prepared by use of sterile, […], preferably water for injection. Use 0.1% pyrogen-free BSA/PBS for all dilutions.
Add 20 μl of HBP derived peptide (in concentrations from 25 to 2500 μM) to 100 μl freshly drawn (less than 4 hours old) citrate whole blood from a healthy human volunteer. Add 20 μl bacterial component (LPS, LTA or PGN) in concentrations from 5 to 5000 ng/ml, preferably 50 to 500 ng/ml. Mix well and incubate for 16-18 hours in an atmosphere of 5% carbon dioxide and at least 95% relative humidity. At the end of the incubation add at least 5 volumes (700 μl) 0.1% BSA/PBS. Mix well. Centrifuge 10 min. at 10.000 g. Aspirate 500 μl supernatant. Determine the level of IL-6 by a specific human immune assay for human IL-6 with sensitivity of at least 3 pg/ml, e.g. Human IL-6 Kit from RnD Systems (cat. no. D 6050).
Negative controls: 100 μl WB plus 40 μl 0.1% BSA/PBS. Positive control: 100 μl WB plus 20 μl LPS (same concentration as used for testing the peptide) and 20 μl 0.1% BSA/PBS.
The human (h20-44) and porcine (p20-44) peptides were synthesized and tested in the screening assay described in Example 1. The following parameters were examined: (a) abililty to induce inflammation on their own (i.e. in the absence of any bacterial component), (b) ability to amplify or inhibit inflammation induced by a bacterial component, such as LPS from the Gram negative bacteria E. coli and PGN or Purified Cell Wall (PCW) from a Gram positive bacteria. As measure for immune stimulation secretion of the release of IL-6 in citrated whole blood was used. The peptides were tested in the concentrations 0.09, 0.18, 0.36 and 0.71 mg/ml blood. […]

[2] = tested on: monocytes in WB; test: as above; conditions: 250 μg/ml PGN from S. aureus
[3] = tested on: Human Neutrophils (PMNs); test: Apoptosis of isolated human neutrophils, TUNEL assay with flow cytometry; conditions: 25 μg HBP per ml sample; 24 h culture; control about 70%
Procedure: The screening for anti-apoptotic peptides is carried out essentially as described by Shrotri M S. et al., 2000.
Peripheral blood from normal volunteers was collected and PMNs were separated by density gradient using Ficoll-Hypaque (Sigma Chemical Co.). PMNs obtained were divided into 1-ml samples with […] and were treated and analyzed as per the protocols described below.
Cell pellets were obtained by centrifugation at 300 g and fixed with 1% paraformaldehyde for 15 min at 4° C. Cells were washed twice and permeabilized with 70% ice-cold ethanol and stored at […]. Cells samples were washed twice and stained by the terminal dUTP nick-end labeling (TUNEL) assay using the APO-BRDU kit (Phoenix Flow Systems, San Diego, Calif.), following the manufacturer's instructions. Briefly, in this assay, the enzyme terminal deoxynucleotidyl transferase (TdT) catalyzes the addition of nucleotides to DNA strand breaks in the apoptotic cells, which are subsequently labeled with fluorescein isothiocyanate (FITC)-conjugated antinucleotide antibodies. The fluorescent cells are the apoptotic cells that are then identified or assessed using the flow cytometer (EPICS Elite, Beckman-Coulter, Hialeah, Fla.). These apoptotic cells were also visually confirmed by confocal microscopy (Meridian Instruments Inc., Okemos, Mich.).
Time zero group. […]

[4] = PGN 50 μg/ml from Staphylococcus aureus, peptide 0.09-0.71 mg/ml blood, FIG. 3

With “KQGRPFCAGALVHPQFVLTAASCFR (Peptide fragment amino acid residues 20-44 of pHBP with mutation R34Q) [R34Q pHBP 20-44, substitution of arginine to glutamine in position 34 of pHBP 20-44]” the “effect on PGN induced IL-6 secretion” value ([1]; in the presence of PGN, FIG. 6) was “completely abolished the inhibitory effect”.

With “NQGRHFCGGALIHARFVMTAASCFQ [human HBP 20-44]” the “sum of the IL-6 secretion induced by LPS and peptide individually” value ([1]; 100 ng/ml LPS alone plus 0.71 mg/ml peptide alone) was 14,178 pg/ml, the “IL-6 secretion, peptide and LPS together” value ([1]; 100 ng/ml LPS plus 0.71 mg/ml peptide) was 12,130 pg/ml and the “effect on LPS induced IL-6 secretion” value ([1]; 0.71 mg/ml peptide) was “increased IL-6 secretion significantly”. The “effect on LPS induced IL-6 secretion” value ([1]; up to 0.36 mg/ml peptide) was “did not significantly increase”, the “effect on PCW induced IL-6 secretion” value ([1]; peptide 0.09-0.71 mg/ml blood) was “increased IL-6 secretion in dose-dependent way” and the “effect on PGN induced IL-6 secretion” value [1, 4] was “increased IL-6 secretion in dose-dependent way”. For the same molecule, the “IL-6 secretion in the absence of bacterial components” value [1] was “significant and dose-dependent increase”.

In the case of “KQGRHFCGGALIHARFVMTAASCFR (Peptide fragment amino acid residues 20-44 of hHBP with mutations N20K,Q44R) [hHBP 20-44 with both N- and C-terminal residues substituted with the corresponding porcine residues]”, the “LPS induced IL-6 production, variant compared to the unsubstituted peptide” value [1] is reported as “nearly non-stimulating” and the “PGN induced IL-6 production, variant compared to the unsubstituted peptide” value ([1]; in the presence of PGN) is reported as “inhibitory”.

In the case of “hHBP 20-44 acetylated at the N-terminal amino group and amidated at the C-terminal carboxyl group: hHBP 20-44 acetylated at the N-terminal amino group and amidated at the C-terminal carboxyl group (Ac-NQGRHFCGGALIHARFVMTAASCFQ-NH2; cysteine pairing not given here; UniProt P20160 46-70, looked up, fragment)”, the “fold stimulation of the PGN mediated IL-6 production” value ([2]; FIG. 5 compared to FIG. 2) is reported as “more than ten fold stimulation” and the “effect on PGN induced IL-6 secretion” value ([2]; normalized to PGN alone, FIG. 5) is reported as “stimulated the IL-6 secretion in a dose dependant way”.

For “NQGRPFCAGALVHPRFVLTAASCFR (Peptide fragment amino acid residues 20-44 of pHBP with mutation K20N) [pHBP 20-44 whose N-terminal amino acid residue was substituted with the human N-terminal residue]”, the “LPS induced IL-6 production, variant compared to the unsubstituted peptide” value [1] was “less inhibitory” and the “PGN induced IL-6 production, variant compared to the unsubstituted peptide” value ([1]; in the presence of PGN) was “less inhibitory”.

“KQGRPFCAGALVHPRFVLTAASCFR (Peptide fragment amino acid residues 20-44 of pHBP) [porcine HBP 20-44]” was tested, and the “effect on LPS induced IL-6 secretion” value ([1]; peptide 0.09-0.71 mg/ml blood) was “significantly and dose-dependently inhibited”, the “effect on PCW induced IL-6 secretion” value ([1]; peptide 0.09-0.71 mg/ml blood) was “significantly and dose-dependently inhibited” and the “effect on PGN induced IL-6 secretion” value [1, 4] was “significantly and dose-dependently inhibited”. For the same molecule, the “IL-6 secretion in the absence of bacterial components” value [1] was “no significant or dose-dependent effect”.

“pHBP 20-44 acetylated and amidated at the N- and C-terminal amino acids: pHBP 20-44 acetylated and amidated at the N- and C-terminal amino acids, respectively (Ac-KQGRPFCAGALVHPRFVLTAASCFR-NH2; cysteine pairing not given here; UniProt P80015 46-70, looked up, fragment)” was tested, and the “LPS induced IL-6 production, variant compared to the unsubstituted peptide” value [1] was “more inhibitory” and the “PGN induced IL-6 production, variant compared to the unsubstituted peptide” value ([1]; in the presence of PGN) was “more inhibitory”.

For “KQGRPFCAGALVHPRFVLTAASCFQ (Peptide fragment amino acid residues 20-44 of pHBP with mutation R44Q) [pHBP 20-44 with C-terminal amino acid residue replaced with the human C-terminal residue]”, the “LPS induced IL-6 production, variant compared to the unsubstituted peptide” value [1] was “the same pattern was observed” and the “PGN induced IL-6 production, variant compared to the unsubstituted peptide” value ([1]; in the presence of PGN) was “the same pattern was observed”.

B1: HBP: heparin-binding protein (HBP), isolated from azurophile granules of human PMNs; also termed CAP37, azurocidin (protein, listed as Homo sapiens)
chain: IVGGRKARPRQFPFLASIQNQGRHFCGGALIHARFVMTAASCFQSQNPGVSTVVLGAYDLRRRERQSRQTFSISSMSENGYDPQQNLNDLMLLQLDREANLTSSVTILPLPLQNATVEAGTRCQVAGWGSQRSGGRLSRFPRFVNVTVTPEDQCRPNNVCTGVLTRRGGICNGDGGTPLVCEGLAHGVASFSLGPCGRGPDFFTRVALFRDWIDGVLNNPGPGPA
For B1, the “amplification of cytokine secretion induced by bacterial products” value [1] was “at least three-fold amplification”, the “cytokine secretion by HBP in itself” value ([1]; no bacterial product) was “no measurable effect” and the apoptosis [3] was ~45%.
